# Data taken from patent publication US20070264241A1, “Compounds for Enhanced Cancer Therapy” (priority 2004, published 2007).
# Like-named read-outs stand apart in the source and are kept apart here.
# How the values were obtained:
# CL2:6 cells = test: XTT cytotoxicity assay of nucleoside analogues with or without phenylbutyrate pre-incubation; format: cell-based; details: 120 hours drug exposure; for IC50: combinations: 24 h pre-incubation with 3.16 mM phenylbutyrate; for sensitivity improvement/increase by phenylbutyrate pre-incubation: CL2:6 pre-incubated 24 h with phenylbutyrate
# Experimental: (§1) Cells were seeded at a density of 1.000-2.000 cells/well in 96-well plates. […] Plated incubated for 24 hours (37° C., 5% CO2) where after media was discarded and replaced by media conditioned with various concentrations of nucleoside analogs (e.g. AZT), 200 μl/well. After 120 hours of drug exposure the experiments were terminated. Cell proliferation/cytotoxicity was assessed by adding the colour generating substrates of the Cell Proliferation kit II (XTT) from Roche (Cat. No. 1465015) and measuring absorbance at 450 nm and 690 nm with a Thermo Labsystems Multiscan Ascent reader. The data was corrected for background media-only absorbance where after the 50% growth inhibitory concentration—IC50 (the dose that inhibits cell growth by 50%) was calculated for each treatment. Cells were seeded at a density of 1.000-2.000 cells/well in PLL coated 96-well plates. […] Plated incubated for 24 hours (37° C., 5% CO2) where after media was discarded and replaced by media conditioned with various concentrations of nucleoside analogs; AZT (Sigma # A2169), AraC (Sigma # C6645), Cladribine (CdA) (Sigma #C4438), Gancidovir (GCV) (Sigma # G2536) and Gemcitabine (Orifarm), 200 μl/well. After 120 hours of drug exposure the experiments were terminated. Cell proliferation/cytotoxicity was assessed by adding the colour generating substrates of the Cell Proliferation kit II (XTT) from Roche (Cat. No. 1465015) and measuring absorbance at 450 nm and 690 nm with a Thermo Labsystems Multiscan Ascent reader. he data was corrected for background media-only absorbance where after the 50% growth inhibitory concentration—IC50 (the dose that inhibits cell growth by 50%) was calculated for ach treatment.
# U343MG cells = test: as above; format: cell-based, human; details: for IC50: 120 hours drug exposure, combinations: 24 h pre-incubation with 3.16 mM phenylbutyrate
# Experimental: as §1
# [1] = test system: hGBM-1, hGBM-5 and hGBM-14 glioblastoma cultures; test: MTT assay of cell viability and proliferation in primary glioblastoma cultures; format: cell-based, human; details: hGBM-1, hGBM-5, hGBM-14; 24 hours (FIG. 2)
# Experimental: Proliferation of cultured glioma cells was assessed by 3-(4,5-dimethylthiazol-2-yl)-2,5-diphenyltetrazolium bromide (MTT, Sigma) assay. MTT tetrazolium salt was dissolved in serum-free culture medium (0.5 mg/ml), added to the cells (150 μl/well) and incubated for 30 min at 37° C. Formazan dye, formed by viable cells, was solubilized in 300 μl of isopropanol. Aliquots (100 μl) of the solutions were transferred to 96-well microplates. The absorbance at 570 nm (with reference at 650 nm) was measured using a microtiter plate spectrophotometer (Anthos HT III). The results were expressed as percentage of viablecells compared to the control sample of untreated cells (100%).
# U87MG wt cells = test: Cell killing effect of AZT, XTT assay, non-transduced cells; format: cell-based, human; details: 120 hours
# Experimental: Exponentially growing U87 wt and tomato kinase expressing cells were plated at a density of 2.000 cells/well in poly-L-lysine coated 96-well plates in 100 μl conditioned medium and incubated 37° C. in a humidified incubator with a gas phase of 5% CO2. After 24 hours, medium was replaced with medium containing varying concentrations of AZT. Hereafter, cells were exposed to drug conditioned media for 120 constitutive hours. The chemo resistance of cultured cells was monitored by the surviving cell fraction as a function of the drug concentration. Viability of cells was determined via the colorimetric XTT assay (XTT kit II—Roche, cat no. 1465015). Briefly, cell media was carefully removed and 100 μl fresh media and 50 μl XTT mix was added to each well. The absorbance at 450 and 690 nm was determined using an ELISA plate reader (Ascent, ThermoLab). The IC50 value (50% inhibition concentration) of the investigated compound was calculated as the mean value of each experiment using SigmaPlot® (Dyrberg Trading, DK).
# U87MG cells = test: XTT cytotoxicity assay of phenylbutyrate and of nucleoside analogues with or without phenylbutyrate pre-incubation; format: cell-based, human; details: 120 hours drug exposure; for IC50: combinations: 24 h pre-incubation with 3.16 mM phenylbutyrate, read-out: IC50 U87MG; for sensitivity increase by phenylbutyrate pre-incubation: U87MG pre-incubated 24 h with phenylbutyrate
# Experimental: Briefly, cells were harvested by trypsinzation, stained by Tryphan Blue for cell viability counting, seeded in triplicate in 96-well plates (1.000-2.000 cells/well) where after media conditioned with a fixed concentration of phenyl butyrate (3.16 mM) were added to the plates followed by incubation for 24 hours at 37° C. and 5% CO2. Cell proliferation/cytotoxicity was assessed by adding the colour generating substrates of the Cell Proliferation kit II (XTT) from Roche (Cat. No. 1465015) and measuring absorbance at 450 nm and 690 nm with a Thermo Labsystems Multiscan Ascent reader.
# Cells were seeded at a density of 1.000-2.000 cells/well in 96-well plates. Cells were pre-incubated with 4-phenyl butyrate for 24 hours prior to drug exposure by adding media conditioned with phenyl butyrate at a fixed concentration (3.16 mM). Plated incubated for 24 hours (37° C., 5% CO2) where after media was discarded and replaced by media conditioned with various concentrations of nucleoside analogs (e.g. AZT), 200 μl/well. After 120 hours of drug exposure the experiments were terminated. Cell proliferation/cytotoxicity was assessed by adding the colour generating substrates of the Cell Proliferation kit II (XTT) from Roche (Cat. No. 1465015) and measuring absorbance at 450 nm and 690 nm with a Thermo Labsystems Multiscan Ascent reader.
# The data was corrected for background media-only absorbance where after the 50% growth inhibitory concentration—IC50 (the dose that inhibits cell growth by 50%) was calculated for each treatment.
# Briefly, cells were harvested by trypsinzation, stained by Tryphan Blue (Cambrex) for cell viability counting, seeded in triplicate in poly-L-lysine (PLL) (Sigma # P6282) coated 96-well plates (1.000-2.000 cells/well) where after media conditioned with a fixed concentration of phenyl butyrate (3.16 mM) was added to the plates followed by incubation for 24 hours at 37° C. and 5% CO2. Cell proliferation/cytotoxicity was assessed by adding the colour generating substrates of the
# Cells were seeded at a density of 1.000-2.000 cells/well in PLL coated 96-well plates. Cells were pre-incubated with 4-phenyl butyrate for 24 hours prior to drug exposure by adding media conditioned with phenyl butyrate at a fixed concentration (3.16 mM). Plated incubated for 24 hours (37° C., 5% CO2) where after media was discarded and replaced by media conditioned with various concentrations of nucleoside analogs; AZT (Sigma # A2169), AraC (Sigma # C6645), Cladribine (CdA) (Sigma #C4438), Gancidovir (GCV) (Sigma # G2536) and Gemcitabine (Orifarm), 200 μl/well. After 120 hours of drug exposure the experiments were terminated. Cell proliferation/cytotoxicity was assessed by adding the colour generating substrates of the Cell Proliferation kit II (XTT) from Roche (Cat. No. 1465015) and measuring absorbance at 450 nm and 690 nm with a Thermo Labsystems Multiscan Ascent reader. he data was corrected for background media-only absorbance where after the 50% growth inhibitory concentration—IC50 (the dose that inhibits cell growth by 50%) was calculated for ach treatment.
# [2] = test system: U87MG cells expressing tomato thymidine kinase; test: Cell killing effect of AZT, XTT assay, tomato thymidine kinase transduced cells; format: cell-based, human; details: for IC50: U87MG tomato TK
# [3] = test system: gap junction communication between S6 and RFP cells; test: Fluorescent dye transfer between glioma cells (S6 to RFP); format: cell-based, Rat; details: unlabeled recipient cells
# Experimental: S6 and RFP cells were plated each in two separate dishes with one dish of each cell type treated either with AGA or DMSO. S6 cells of both dishes were incubated with Calcein-AM and Dil. Cells were trypsinized and 85% RFP cells were mixed with 15% S6 cells and mixtures were co-cultured in two dishes where one contained cells pretreated with AGA (right panel). After 2.5 hours cells were incubated with Hoechst nuclear stain and Calcein-AM dye transfer from S6 cells to RFP cells was monitored.
# Glioblastoma cells were cultured on 35 mm petri dishes and in vitro labelled with 5 μM calcein-AM (acetomethylic ester) and 10 μM Dil (Molecular Probes) diluted in supplemented serum free medium DMEM/F12 and incubated for 30 min at 37° C. The cells were washed once with the same medium, trypsinized and suspended in the culture medium induding 10% FBS. The cells were pelleted by centrifugation at 1600 rpm for 1 minute and resuspended in fresh culture medium. The procedure was repeated twice. Following the second resuspension, the labelled cells were plated on top of unlabelled cells of the same origin. These cells were either pretreated with 4-PB at a concentration of 5 mM, or non-treated serving as a control. The labeled cells were then allowed to settle for 1 hour, followed by analyses using epifluorescence detection microscopy every 30 minutes for up to 6 hours. […]
# [4] = test system: glioma cells expressing HSV-TK (S6) mixed with RFP cells; test: Gap junction mediated cell death (bystander effect), MTT ratio A1:RFP/S6:RFP; format: cell-based, Rat; details: added to ganciclovir and 4-PB treatment
# Experimental: Mixtures of cell dones were treated with drugs as indicated. After 96 h (grey bar), 120 h (white bar) and 168 h (black bar) MTT tests from three samples were performed. The ratios of the MTT tests from TK negative and TK positve mixtures (A1:RFP/S6:RFP) are shown.
# Glioma cells with stable expression of green fluorescent protein (EGFP) and the herpes simplex virus thymidine kinase expressing gene HSV-TK in sense (S6) or in antisense (A1) were mixed with cells stably expressing the red fluorescent protein (RFP) (ratio 3:7 S6:RFP or A1:RFP). Ganciclovir, 4-phenylbutyrate and AGA were added 3 hrs after seeding the cells, except for AGA, which was added directly at seeding of cells. After 48 hours, cells were split and after 96, 120 and 168 hrs one each of the cell culture quadruplicates was used for MTT-test while one sample was employed for FACS analysis. After 144 h cells from the third of the quadruplicate were split again and the last quadruplicate sample was analyzed the following day (168 h).
# Proliferation of cultured glioma cells was assessed by 3-(4,5-dimethylthiazol-2-yl)-2,5-diphenyltetrazolium bromide (MTT, Sigma) assay. […] The absorbance at 570 nm (with reference at 650 nm) was measured using a microtiter plate spectrophotometer (Anthos HT III). The results were expressed as percentage of viable cells compared to the control sample of untreated cells (100%).
smiles,measurement,setting,value
"Nc1nc(O)c2ncn(COC(CO)CO)c2n1 [GCV, 9-[2-hydroxy-1-(hydroxymethyl)ethoxyl-methyl]-guanosine]",IC50,CL2:6 cells,3360 µM
same,sensitivity improvement/increase by phenylbutyrate pre-incubation,CL2:6 cells,1.4 times
same,IC50,"U343MG cells; Homo sapiens, U-343MG",104 µM
CCCC(CCC)C(=O)O [valproic acid],antiproliferative potency compared with 4-PB (MTT),[1],less potent
"Cc1cn([C@H]2C[C@H](N=[N+]=[N-])[C@@H](CO)O2)c(=O)[nH]c1=O [AZT, 3′-azido-3′-thymidine]",IC50,CL2:6 cells,573 µM
same,sensitivity improvement/increase by phenylbutyrate pre-incubation,CL2:6 cells,1.7 times
same,IC50,U87MG wt cells,7430 µM
same,IC50,U87MG cells,6000 µM
same,IC50,U343MG cells,56 µM
same,sensitivity improvement by phenylbutyrate pre-incubation,U343MG cells; U343MG pre-incubated 24 h with phenylbutyrate,4.2 times
same,sensitivity increase of tomato TK expressing U87 cells compared to wt U87MG,[2],500 fold
same,IC50,"[2]; 120 hours, read-out: IC50 for tomato TK transduced cells",14.8 µM
same,IC50,"[2]; read-out: IC50 measured in FIG. 15B, approximate",~15 µM
"Nc1ccn([C@@H]2O[C@H](CO)[C@@H](O)C2(F)F)c(=O)n1 [Gemcitabine, 2′,2′-difluorodeoxycytidine]",IC50,"U87MG cells; Homo sapiens, U-87 MG",0.248 µM
same,sensitivity increase by phenylbutyrate pre-incubation,U87MG cells,7.8 times
"O=C1CCc2c(ccc3ccccc23)O1 [Splitomicin, splitomicin]",antiproliferative potency compared with 4-PB (MTT),[1],less potent
CC(/C=C/C(=O)NO)=C\[C@@H](C)C(=O)c1ccc(N(C)C)cc1 [Trichostatin A],antiproliferative potency compared with 4-PB (MTT),[1],less potent
"CC1(C)[C@@H](O)CC[C@]2(C)[C@H]3C(=O)C=C4[C@H]5C[C@@](C)(C(=O)O)CC[C@]5(C)CC[C@@]4(C)[C@]3(C)CC[C@@H]12 [AGA, 18α glycyrrhethinic acid]",calcein transfer from Dil-positive donor cells,[3],inhibited
same,bystander killing effect upon addition of gap junction inhibitor,[4],reduced
CCCC(=O)[O-].[Na+] [sodium butyrate],antiproliferative potency compared with 4-PB (MTT),[1],less potent
"Nc1ccn([C@@H]2O[C@H](CO)[C@@H](O)[C@@H]2O)c(=O)n1 [AraC, cytidine-arabinoside]",IC50,U87MG cells,4340 µM
same,sensitivity increase by phenylbutyrate pre-incubation,U87MG cells,3.5 times
"Nc1nc(Cl)nc2c1ncn2[C@H]1C[C@H](O)[C@@H](CO)O1 [CdA, 2-chloro-2′-deoxyadenosine]",IC50,"U87MG cells; Homo sapiens, U-87 MG",5.74 µM
same,sensitivity increase by phenylbutyrate pre-incubation,U87MG cells,2.3 times
